Where “and” joins values, the source holds several entries; their conditions need not be identical. Equal values may be shown once. Read-outs that look alike come from different tables or passages of the source.
Columns and labels:
[1] = test system: Trypanosoma brucei brucei 427 cells; assay: T. brucei culture and assay (PrestoBlue); type: cell-based
[2] = test system: Leishmania amazonensis promastigotes expressing beta-lactamase; assay: microbe, parasite or virus in culture; type: cell-based; conditions: for IC50: Leishmania amazonensis, read-out: IC50 L. amaz.
Method: Leishmania amazonensis promastigotes expressing beta-lactamase (Buckner et al., Am. J. Trop. Med. Hyg. 72 (2005) 600-605. doi:72/5/600 [pii]) were cultured in RPMI supplemented with 10% fetal calf serum and 1% pen-strep-glut solution (Sigma) at 27° C. Stationary phase promastigotes were adjusted in fresh media, treated with compounds, and incubated at 37° C. At 24 hours, 100 uL of cultures was added to 50 uL of the CellTiter Glo® solution. Luminescence readings were taken with a spectrophotometer and used to calculate inhibition.

[3] = test system: rat skeletal muscle cell line, L6; assay: cells; type: cell-based
Method: Cells were maintained in high glucose DMEM obtained from HyClone Laboratories (Logan, Utah) and supplemented with FCS and P/S at the same concentrations used for parasite culture. Cells were passaged every 3-4 days and maintained in a 37° C. humidified incubator in an atmosphere of 5% CO2. For assays. cells were detached, counted using a hemocytometer, and adjusted using fresh media to deliver 5×10^3 cells per well (90 μL) in black walled, flat clear bottom 96-well microtiter plates. After 3 h incubation for attachment, compounds diluted in culture medium were added (10 μL) to triplicate wells. Positive controls (cells treated with podophyllotoxin (Sigma, St. Louis, Mo.)), negative controls (untreated cells), solvent controls (DMSO) and media blanks were included on each plate. Following incubation for 71.5 h, 11 μL of PrestoBlue was added into each well.

[4] = test system: Trypanosoma cruzi Tulahuen cells expressing beta-galactosidase; assay: T. cruzi intracellular assay (beta-galactosidase, L6 host cells); conditions: for IC50: Trypanosoma cruzi, TULAHUEN; for Selectivity L6/TC-I: Table 3A
[5] = Trypanosoma brucei, Table 1, mean of 2(+) independent trials, read-out: IC50 T. brucei
[6] = Rattus norvegicus, Table 1, read-out: IC50 Toxicity (L6)
[7] = read-out: IC50 T. cruzi, Table 1, intracellular assay, mean of 2(+) trials (^c one trial)
[8] = read-out: IC50 T. cruzi, Table 2, intracellular assay, mean of 2(+) independent trials
[9] = Rattus norvegicus, Table 3A, weighted means of two or more independent trials, read-out: IC50 L6
[10] = Table 1, intracellular T. cruzi IC50
[11] = Table 2, L6 IC50 / T. cruzi IC50 (intracellular assay)
[12] = estimated from highest L6 dose tested where no L6 IC50
[13] = read-out: IC50 TC-I, Table 3A, weighted means of two or more independent trials
[14] = Trypanosoma brucei, read-out: T. brucei IC50 dose
[15] = Table 3B, estimated from highest L6 dose tested where no L6 IC50

Work on `O=C1/C(=C/c2cccs2)Nc2ccccc21` [AA9] yielded an IC50 [1, 5] of over 50 µM, an IC50 [2] of under 1 µM and an IC50 [3, 6] of over 200 µM. The IC50 [4, 7] was over 50 µM and the IC50 [4, 8] was over 50 µM.
For `O=C1/C(=C/c2ccccc2)Oc2ccccc21` [Aurone 6615, (Z)-2-benzylidenebenzofuran-3(2H)-one], the “Selectivity L6/Tb” value ([1]; Table 1) was 8.22, the “Selectivity L6/Tb” value ([1]; Table 2, L6 IC50 / T. brucei IC50) was 8.22 and the “Selectivity L6/Tb” value ([1]; Table 3A, estimated from highest L6 dose tested where no L6 IC50) was 8.22. For the same molecule, the IC50 [1, 5] was 40.1 µM, the IC50 [2] was 4.13 µM and the “Selectivity L6/La” value ([2]; Table 1) was 79.77. The IC50 [3, 6] was 329 µM, the IC50 [3, 9] was 329 µM and the “Selectivity L6/Tc” value [4, 10] was 20.88. The “Selectivity L6/Tc” value [4, 11] was 20.88, the “Selectivity L6/TC-I” value [4, 12] was 20.88 and the IC50 [4, 7] was 15.8 µM. For the same molecule, the IC50 [4, 8] was 15.8 µM and the IC50 [4, 13] was 15.8 µM.
With `Cc1ccc(/C=C2\Oc3ccccc3C2=O)cc1` [Aurone 9065, (Z)-2-(4-methylbenzylidene)benzofuran-3(2H)-one] the IC50 ([1]; Table 2, mean of 2(+) independent trials, read-out: IC50 T. brucei) was over 50 µM, the IC50 [1, 5] was over 50 µM and the IC50 [2] was 1.37 µM. For the same molecule, the “Selectivity L6/La” value ([2]; Table 1) was over 72.99, the “Selectivity L6/La” value ([2]; Table 2, L6 IC50 / L. amazonensis IC50) was over 72.99 and the IC50 [3, 6] was over 100 µM. The IC50 [3, 9] was over 100 µM, the IC50 ([3]; Table 2, L6 mammalian cells, read-out: IC50 Toxicity (L6)) was over 100 µM and the “Selectivity L6/Tc” value [4, 10] was over 11.59. The “Selectivity L6/Tc” value [4, 11] was over 11.59, the “Selectivity L6/TC-I” value [4, 12] was over 11.59 and the IC50 [4, 7] was 8.63 µM. For the same molecule, the IC50 [4, 8] was 8.63 µM and the IC50 [4, 13] was 8.63 µM.
With `O=C1/C(=C/c2cccc([N+](=O)[O-])c2)Oc2ccccc21` [Aurone 12a] the “activity against T. brucei” value [1] was “modest activity” and the “activity against T. cruzi” value [4] was “modest activity”.
For `N#Cc1ccc(/C=C2\Oc3ccccc3C2=O)cc1` [Aurone 7c], the “selectivity for T. brucei (L6/Tb)” value [1] was 29.49 and 29.46 and the IC50 [1, 14] was 8.12 µM.
Molecule `O=C1/C(=C/c2cccc(I)c2)Oc2ccccc21` [Aurone 4b, (Z)-2-(3-iodobenzylidene)benzofuran-3(2H)-one] has an IC50 [1, 14] of over 50 µM and an IC50 ([4]; read-out: T. cruzi IC50 dose) of under 10 µM.
In the case of `O=C1/C(=C/c2ccc(Cl)cc2)Oc2ccccc21` [Aurone 3c, (Z)-2-(4-chlorobenzylidene)benzofuran-3(2H)-one], the IC50 ([4]; read-out: T. cruzi IC50 dose) is reported as under 10 µM.
With `O=C1/C(=C/c2cccc(O)c2)Oc2ccccc21` [Sample 9252] the IC50 [3, 9] was over 100 µM and the IC50 [4, 13] was 16.5 µM.
With `O=C1/C(=C/c2ccccc2Cl)Oc2ccccc21` [Aurone 3a, (Z)-2-(2-chlorobenzylidene)benzofuran-3(2H)-one] the “selectivity for T. brucei (L6/Tb)” value [1] was 21.02 and the IC50 [1, 14] was 11.3 µM.
Molecule `O=C1/C(=C/c2cccc(Br)c2)Oc2ccccc21` [Aurone 5b, (Z)-2-(3-bromobenzylidene)benzofuran-3(2H)-one] has an IC50 [1, 14] of over 50 µM and an IC50 ([4]; read-out: T. cruzi IC50 dose) of under 10 µM.
`COc1cc(OC)c2c(c1)O/C(=C\c1ccc(C)cc1)C2=O` [Aurone 7000] showed an IC50 [1, 5] of 23.2 µM, an IC50 [3, 6] of 142 µM and an IC50 [4, 7] of 7.92 µM. It also gave an IC50 [4, 8] of 7.92 µM.
In the case of `COC(=O)c1ccc(/C=C2\Oc3ccccc3C2=O)cc1` [Aurone 13, Methyl (Z)-4-((3-oxobenzofuran-2(3H)-ylidene)methyl)benzoate], the “activity against T. brucei” value [1] is reported as “no activity” and the “activity against T. cruzi” value [4] is reported as “no activity”.
For `O=C1/C(=C/c2cccc(Br)n2)Oc2ccccc21` [Aurone 9260, (Z)-2-((6-bromopyridin-2-yl)methylene)benzofuran-3(2H)-one], the “Selectivity L6/Tb” value ([1]; Table 1) was over 2.29, the “Selectivity L6/Tb” value [1, 15] was over 4.96 and the IC50 [1, 5] was 43.6 µM. It also gave an IC50 [1, 14] of 43.6 µM, an IC50 [3, 6] of over 100 µM and an IC50 ([3]; Rattus norvegicus, Table 3B, weighted means of two or more independent trials, read-out: IC50 L6) of over 100 µM. The “Selectivity L6/Tc” value [4, 10] was over 6.87, the “Selectivity L6/Tc-I” value [4, 15] was over 6.87 and the IC50 [4, 7] was 14.6 µM. The IC50 ([4]; read-out: IC50 TC-I, Table 3B, weighted means of two or more independent trials) was 14.6 µM.
With `O=C1/C(=C/c2ccc([N+](=O)[O-])cc2)Oc2ccccc21` [Aurone 12b] the “activity against T. brucei” value [1] was “modest activity” and the “activity against T. cruzi” value [4] was “modest activity”.

— patent US20200399238A1, “THERAPEUTIC AURONES” (MIDDLE TENNESSEE STATE UNIVERSITY, priority 2016, published 2020)
